These results are taken from US10143695B2 (priority 2016, dated 2018).

Common to all, as to type: cell-based
Holding throughout (settings): PBD compounds, 72 h incubation

Assay [1] has as its system BT474 cells (HER2 expressing cells). Briefly: CellTiter-Glo cell viability assay, BT474. As for the experimental part: (§1) PBD compounds and conjugates thereof were evaluated for their antiproliferation properties in tumor cell lines in vitro using CellTiter-Glo® (Promega Corp). Cells were plated in black walled 96-well plate and allowed to adhere overnight at 37° C. in a humidified atmosphere of 5% CO2. BT474, SKBR3, NCI-N87 cells (HER2 expressing cells), JIMT1 cells (HER2 medium expression level cells) and MCF7 cells (HER2 low expressing levels cells) and were plated at a density of 5,000 cells per well. The next day the medium was replaced with 50 μL fresh medium and 50 μL of 2× stocks of PBD compounds or antibody-PBD conjugate were added to appropriate wells, mixed and incubated for 72 h. CellTiter-Glo® reagent was added to the wells at room temperature and the luminescent signal was measured after 10 min using a SpectraMax M5 plate reader (Molecular Devices). Dose response curves were generated using SoftMax Pro software. IC50 values were determined from four-parameter curve fitting.

Assay [2] deals with NCI-N87 cells (HER2 expressing cells). Briefly: CellTiter-Glo cell viability assay, NCI-N87. As for the experimental part: as §1
On the technique in general: ATP-based viability assays read luminescence as a measure of living cells.

Assay [3] deals with SKBR3 cells (HER2 expressing cells). Briefly: CellTiter-Glo cell viability assay, SKBR3. As to the method:
as §1

Assay [4] concerns JIMT1 cells (HER2 medium expression level cells). Briefly: CellTiter-Glo cell viability assay, JIMT1. As for the experimental part: as §1
Assay [5] concerns MCF7 cells (HER2 low expressing levels cells). Briefly: CellTiter-Glo cell viability assay, MCF7. As to the method:
as §1

Structures are written as SMILES.

With `C=C1C[C@H]2C=Nc3cc(OCCCC(=O)Nc4cn(C)c(C(=O)Nc5cc(C(=O)Nc6cc(C(=O)NCc7ccc(N)cc7)n(C)c6)n(C)c5)n4)c(OC)cc3C(=O)N2C1` [Compound 4A, (S,Z)-N-(5-(5-(4-aminobenzylcarbamoyl)-1-methyl-1H-pyrrol-3-ylcarbamoyl)-1-methyl-1H-pyrrol-3-yl)-4-(4-(7-methoxy-2-methylene-5-oxo-2,3,5,11a-tetrahydro-1H-benzo[e]pyrrolo[1,2-a][1,4]diazepin-8-yloxy)butanamido)-1-methyl-1H-imidazole-2-carboxamide], the IC50 in assay [1] (Homo sapiens, BT-474) turned out to be 26.8 nM; in assay [2] (Homo sapiens, NCI-N87) it was 24.1 nM; in assay [3] (Homo sapiens, SK-BR-3), 9.4 nM; in assay [4] (Homo sapiens, JIMT-1), 11.4 nM; in assay [5] (Homo sapiens, MCF7), 1000 nM.
`C=C1C[C@H]2C=Nc3cc(OCCCC(=O)Nc4cn(C)c(C(=O)Nc5cc(C(=O)Nc6cc(C(=O)n7ccc8cc(SC)ccc87)n(C)c6)n(C)c5)n4)c(OC)cc3C(=O)N2C1` [Compound 19, (S,Z)-4-(4-(7-methoxy-2-methylene-5-oxo-2,3,5,11a-tetrahydro-1H-benzo[e]pyrrolo[1,2-a][1,4]diazepin-8-yloxy)butanamido)-1-methyl-N-(1-methyl-5-(1-methyl-5-(5-(methylthio)-1H-indole-1-carbonyl)-1H-pyrrol-3-ylcarbamoyl)-1H-pyrrol-3-yl)-1H-imidazole-2-carboxamide]: the IC50 was 0.59 nM in assay [1] (Homo sapiens, BT-474); 0.35 nM in assay [2] (Homo sapiens, NCI-N87); 0.2 nM in assay [3] (Homo sapiens, SK-BR-3); 1.34 nM in assay [4] (Homo sapiens, JIMT-1); 2.1 nM in assay [5] (Homo sapiens, MCF7).
On the same counts, the results for `C=C1C[C@H]2C=Nc3cc(OCCCC(=O)Nc4cn(C)c(C(=O)Nc5cc(C(=O)Nc6cc(C(=O)n7ncc8ccc(N)cc87)n(C)c6)n(C)c5)n4)c(OC)cc3C(=O)N2C1` [Compound 28, (S,Z)-N-(5-(5-(6-amino-1H-indazole-1-carbonyl)-1-methyl-1H-pyrrol-3-ylcarbamoyl)-1-methyl-1H-pyrrol-3-yl)-4-(4-(7-methoxy-2-methylene-5-oxo-2,3,5,11a-tetrahydro-1H-benzo[e]pyrrolo[1,2-a][1,4]diazepin-8-yloxy)butanamido)-1-methyl-1H-imidazole-2-carboxamide] are 2.9 nM, 1.02 nM, 0.16 nM, 0.6 nM and 2.6 nM.
`COc1cc2c(cc1OCCCC(=O)Nc1cc(C(=O)Nc3cc(C(=O)Nc4cc(C(=O)NCCCO)n(C)c4)n(C)c3)n(C)c1)N=C[C@@H]1Cc3ccccc3N1C2=O` [Compound 69]: the IC50 in assay [1] (Homo sapiens, BT-474) came out at 4.7 nM; in assay [2] (Homo sapiens, NCI-N87), 3 nM; in assay [3] (Homo sapiens, SK-BR-3), 1.5 nM; in assay [4] (Homo sapiens, JIMT-1) it was 1.5 nM; in assay [5] (Homo sapiens, MCF7), 69 nM.
With `C=C1C[C@H]2C=Nc3cc(OCCCC(=O)Nc4cn(C)c(C(=O)Nc5cc(C(=O)Nc6cc(C(=O)n7ccc8cc(C(=O)OC)cnc87)n(C)c6)n(C)c5)n4)c(OC)cc3C(=O)N2C1` [Compound 85, (S,Z)-methyl 1-(4-(4-(4-(4-(7-methoxy-2-methylene-5-oxo-2,3,5,11a-tetrahydro-1H-benzo[e]pyrrolo[1,2-a][1,4]diazepin-8-yloxy)butanamido)-1-methyl-1H-imidazole-2-carboxamido)-1-methyl-1H-pyrrole-2-carboxamido)-1-methyl-1H-pyrrole-2-carbonyl)-1H-pyrrolo[2,3-b]pyridine-5-carboxylate], the IC50 in assay [1] (Homo sapiens, BT-474) came out at 6.3 nM; in assay [2] (Homo sapiens, NCI-N87), 0.97 nM; in assay [3] (Homo sapiens, SK-BR-3), 0.58 nM; in assay [4] (Homo sapiens, JIMT-1) it was 14.2 nM; in assay [5] (Homo sapiens, MCF7), 8 nM.
In the same order, the values of `C=C1C[C@H]2C=Nc3cc(OCCCC(=O)Nc4cn(C)c(C(=O)Nc5cc(C(=O)Nc6cc(C(=O)n7ccc8cc(N)ccc87)n(C)c6)n(C)c5)n4)c(OC)cc3C(=O)N2C1` [Compound 8, (S,Z)-N-(5-((5-(5-amino-1H-indole-1-carbonyl)-1-methyl-1H-pyrrol-3-yl)carbamoyl)-1-methyl-1H-pyrrol-3-yl)-4-(4-((7-methoxy-2-methylene-5-oxo-2,3,5,11a-tetrahydro-1H-benzo[e]pyrrolo[1,2-a][1,4]diazepin-8-yl)oxy)butanamido)-1-methyl-1H-imidazole-2-carboxamide] are 0.84 nM, 0.43 nM, 0.15 nM, 2.2 nM and 4 nM.
For `C=C1C[C@H]2C=Nc3cc(OCCCC(=O)Nc4cn(C)c(C(=O)Nc5cc(C(=O)Nc6cc(C(=O)Nc7ccc8[nH]ccc8c7)n(C)c6)n(C)c5)n4)c(OC)cc3C(=O)N2C1` [Compound 82, (S,Z)-N-(5-(5-(1H-indol-5-ylcarbamoyl)-1-methyl-1H-pyrrol-3-ylcarbamoyl)-1-methyl-1H-pyrrol-3-yl)-4-(4-(7-methoxy-2-methylene-5-oxo-2,3,5,11a-tetrahydro-1H-benzo[e]pyrrolo[1,2-a][1,4]diazepin-8-yloxy)butanamido)-1-methyl-1H-imidazole-2-carboxamide], the IC50 was determined as 32 nM in assay [1]; 7.9 nM in assay [2]; 3.6 nM in assay [3]; 10.8 nM in assay [4]; 27 nM in assay [5].
For `C=C1C[C@H]2C=Nc3cc(OCCCC(=O)Nc4cn(C)c(C(=O)Nc5cc(C(=O)N6Cc7ccc(N)cc7C6)n(C)c5)n4)c(OC)cc3C(=O)N2C1` [Compound 5A, (S,Z)-N-(5-(5-aminoisoindoline-2-carbonyl)-1-methyl-1H-pyrrol-3-yl)-4-(4-(7-methoxy-2-methylene-5-oxo-2,3,5,11a-tetrahydro-1H-benzo[e]pyrrolo[1,2-a][1,4]diazepin-8-yloxy)butanamido)-1-methyl-1H-imidazole-2-carboxamide], the IC50 came to 2.9 nM in assay [1] (Homo sapiens, BT-474); 5.3 nM in assay [2] (Homo sapiens, NCI-N87); 0.97 nM in assay [3] (Homo sapiens, SK-BR-3); 16 nM in assay [4] (Homo sapiens, JIMT-1); 24.2 nM in assay [5] (Homo sapiens, MCF7).
In the case of `C=C1C[C@@H]2C=Nc3cc(OCCCC(=O)Nc4cc(C(=O)Nc5cc(C(=O)Nc6cc(C(=O)NCCCO)n(C)c6)n(C)c5)n(C)c4)c(OC)cc3C(=O)N2C1` [Compound 55, (R,Z)-N-(3-hydroxypropyl)-4-(4-(4-(4-(7-methoxy-2-methylene-5-oxo-2,3,5,11a-tetrahydro-1H-benzo[e]pyrrolo[1,2-a][1,4]diazepin-8-yloxy)butanamido)-1-methyl-1H-pyrrole-2-carboxamido)-1-methyl-1H-pyrrole-2-carboxamido)-1-methyl-1H-pyrrole-2-carboxamide], the IC50 in assay [1] (Homo sapiens, BT-474) was determined as 7.5 nM; in assay [2] (Homo sapiens, NCI-N87), 5 nM; in assay [3] (Homo sapiens, SK-BR-3), 2.5 nM; in assay [4] (Homo sapiens, JIMT-1) it was 2 nM; in assay [5] (Homo sapiens, MCF7) it was 47 nM.
Take `C=C1C[C@H]2C=Nc3cc(OCCCC(=O)Nc4cn(C)c(C(=O)Nc5cc(C(=O)Nc6cc(C(=O)n7ncc8cc(N)ccc87)n(C)c6)n(C)c5)n4)c(OC)cc3C(=O)N2C1` [Compound 79, (S,Z)-N-(5-(5-(5-amino-1H-indazole-1-carbonyl)-1-methyl-1H-pyrrol-3-ylcarbamoyl)-1-methyl-1H-pyrrol-3-yl)-4-(4-(7-methoxy-2-methylene-5-oxo-2,3,5,11a-tetrahydro-1H-benzo[e]pyrrolo[1,2-a][1,4]diazepin-8-yloxy)butanamido)-1-methyl-1H-imidazole-2-carboxamide]: the IC50 in assay [1] (Homo sapiens, BT-474) is 0.66 nM; in assay [2] (Homo sapiens, NCI-N87), 0.31 nM; in assay [3] (Homo sapiens, SK-BR-3) it was 0.09 nM; in assay [4] (Homo sapiens, JIMT-1) it was 2.1 nM; in assay [5] (Homo sapiens, MCF7), 2.6 nM.
Regarding `C=C1C[C@H]2C=Nc3cc(OCCCC(=O)Nc4cn(C)c(C(=O)Nc5cc(C(=O)Nc6cc(C(=O)n7ccc8ccc(N)cc87)n(C)c6)n(C)c5)n4)c(OC)cc3C(=O)N2C1` [Compound 13A, (S,Z)-N-(5-(5-(6-amino-1H-indole-1-carbonyl)-1-methyl-1H-pyrrol-3-ylcarbamoyl)-1-methyl-1H-pyrrol-3-yl)-4-(4-(7-methoxy-2-methylene-5-oxo-2,3,5,11a-tetrahydro-1H-benzo[e]pyrrolo[1,2-a][1,4]diazepin-8-yloxy)butanamido)-1-methyl-1H-imidazole-2-carboxamide], the IC50 came out at 2.5 nM in assay [1] (Homo sapiens, BT-474); 0.73 nM in assay [2] (Homo sapiens, NCI-N87); 0.28 nM in assay [3] (Homo sapiens, SK-BR-3); 3.6 nM in assay [4] (Homo sapiens, JIMT-1); 4.4 nM in assay [5] (Homo sapiens, MCF7).
As for `C=C1C[C@H]2C=Nc3cc(OCCCC(=O)Nc4cn(C)c(C(=O)Nc5cc(C(=O)Nc6cc(C(=O)n7ccc8c(N)cccc87)n(C)c6)n(C)c5)n4)c(OC)cc3C(=O)N2C1` [Compound 11A, (S,Z)-N-(5-(5-(4-amino-1H-indole-1-carbonyl)-1-methyl-1H-pyrrol-3-ylcarbamoyl)-1-methyl-1H-pyrrol-3-yl)-4-(4-(7-methoxy-2-methylene-5-oxo-2,3,5,11a-tetrahydro-1H-benzo[e]pyrrolo[1,2-a][1,4]diazepin-8-yloxy)butanamido)-1-methyl-1H-imidazole-2-carboxamide], the 50% inhibitory concentration (IC50) in assay [1] (Homo sapiens, BT-474) amounted to 4 nM; in assay [2] (Homo sapiens, NCI-N87), 1.5 nM; in assay [3] (Homo sapiens, SK-BR-3), 0.67 nM; in assay [4] (Homo sapiens, JIMT-1) it was 11.3 nM; in assay [5] (Homo sapiens, MCF7) it was 14.8 nM.

The IC50 is the concentration at which inhibition is half-maximal.
